The results in this text go back to US20260159533A1, “INHIBITORS OF COMPLEMENT FACTORS AND USES THEREOF” (Annexon, Inc., priority 2022, published 2026).

The target of the assay is T1, human C1s protein (Homo sapiens, UniProt P09871).
T1 construct: purchased R&D Systems or Complement Technologies 2060-SE or A104
T1 sequence (P09871 16-688): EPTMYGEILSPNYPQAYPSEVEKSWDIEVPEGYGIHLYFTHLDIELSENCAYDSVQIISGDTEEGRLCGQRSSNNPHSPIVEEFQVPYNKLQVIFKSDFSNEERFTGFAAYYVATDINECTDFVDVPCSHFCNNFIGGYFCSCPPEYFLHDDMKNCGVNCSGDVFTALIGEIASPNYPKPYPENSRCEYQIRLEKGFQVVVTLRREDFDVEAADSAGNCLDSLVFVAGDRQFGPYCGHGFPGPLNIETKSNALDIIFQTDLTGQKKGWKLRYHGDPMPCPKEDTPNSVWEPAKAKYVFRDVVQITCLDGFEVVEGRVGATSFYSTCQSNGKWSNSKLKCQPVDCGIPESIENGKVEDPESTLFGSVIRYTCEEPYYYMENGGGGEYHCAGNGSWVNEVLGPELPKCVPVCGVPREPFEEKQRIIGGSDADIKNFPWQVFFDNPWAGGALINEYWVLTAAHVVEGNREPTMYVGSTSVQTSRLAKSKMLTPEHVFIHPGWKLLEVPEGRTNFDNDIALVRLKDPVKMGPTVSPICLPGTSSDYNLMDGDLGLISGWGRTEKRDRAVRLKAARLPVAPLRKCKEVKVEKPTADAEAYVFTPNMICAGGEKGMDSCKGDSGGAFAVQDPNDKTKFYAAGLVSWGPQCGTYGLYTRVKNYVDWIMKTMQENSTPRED
The assay can be described thus: recombinant C1s enzymatic assay (YLGR-Rh110-dPro substrate hydrolysis, fluorescence). In kind it is biochemical. To be noted: recombinant human C1s 2.5 nM, substrate YLGR-Rh110-dPro 20 μM, 15 min pre-incubation, 60 min RT; read-out: rec. hC11s pIC50 (converted). As to the method: Compound testing in the purified or recombinant C1s enzymatic assay C1s is a serine protease; its enzymatic activity is measured in vitro by the hydrolysis of the synthetic substrate YLGR-Rh110-dPro (Kerr F K, O'Brien G, Quinsey N S, Whisstock J C, Boyd S, de la Banda M G, Kaiserman D, Matthews A Y, Bird P I, Pike R N. Elucidation of the substrate specificity of the Cis protease of the classical complement pathway. J. Biol. Chem. (2005) 280, 39510-39514). The enzyme cleaves the substrate with the release of Rh110 which is highly fluorescent. Cis inhibitors prevent the hydrolysis of the substrate thus resulting in a decrease of the signal.
The recombinant C1s enzymatic assay is performed using the human C1s protein (R&D Systems, 2060-SE or Complement Technologies, A104). The assay buffer composition is: 50 mM HEPES pH 7.5 (Sigma, H3375), 150 mM NaCl (Sigma, S7653), 0.2% PEG 8000 (VWR, AA43443-22), 0.01% Pluronic F127 (Sigma, P2243). On the day of the experiment 0.1 mg/mL BSA (Sigma, B4287) is added fresh to the buffer. The test item stock solutions are serially diluted 1:3 or 1:4 or 1:5 with DMSO, 11-point curves, in a 384-well compound plate. Nafamostat concentration curve is always included in the assay plate as a reference control.
The assay plate is prepared by dispensing 0.25 μL from compound plate into a 384-well black assay plate (assay plate, Greiner Fluotrac 200, 781076, VWR 736-0140). The high controls are prepared dispensing in 0.25 μL DMSO in column 23, rows AH or AP and low controls with 0.25 μL of 0.1 μM Nafamostat. Cis solution is prepared as 2× of the 2.5 nM final assay concentration. The YLGR-Rh110-dPro substrate is prepared as 2× of the final assay concentration of 20 μM. 5 μL/well of 2× enzyme solution is dispensed and pre-incubated for 15 min with the compounds. The enzymatic reaction is the started with 5 μL/well of the 2× substrate solution. The plate is incubated for 60 min RT in the dark and fluorescence is measured (ex 485/em 535 nm) using an Envision (PerkinElmer) or an equivalent instrument.

SMILES strings stand for the structures. Counter-ions that a name gives are not always drawn.

In the case of `Nc1cnnc2cc(-c3cc(B(O)O)ccc3-n3cncn3)ccc12` [Example 5, [3-(4-aminocinnolin-7-yl)-4-(1H-1,2,4-triazol-1-yl)phenyl]boronic acid formic acid salt], the IC50 was 1.32 nM.

For `COc1cc(-c2ncc(C(F)F)s2)c(-c2ccc3c(N)cnnc3c2)cc1B(O)O` [Example 86, [5-(4-aminocinnolin-7-yl)-4-[5-(difluoromethyl)thiazol-2-yl]-2-methoxy-phenyl]boronic acid], the IC50 is 0.741 nM.

On to `COc1cc(-c2nccs2)c(-c2ccc3c(N)cnnc3c2)cc1B(O)O` [Example 38, [5-(4-aminocinnolin-7-yl)-2-methoxy-4-thiazol-2-yl-phenyl]boronic acid formic acid salt], for which the IC50 was 1.02 nM.

Regarding `COc1cc(-c2c[nH]cn2)c(-c2ccc3c(N)cnnc3c2)cc1B(O)O` [Example 45, [5-(4-aminocinnolin-7-yl)-4-(1H-imidazol-4-yl)-2-methoxyphenyl]boronic acid], the IC50 is 5.5 nM.

Consider `COc1cnc(-c2cc(OC)c(B(O)O)cc2-c2ccc3c(N)cnnc3c2)s1` [Example 68, [5-(4-aminocinnolin-7-yl)-2-methoxy-4-(5-methoxy-1,3-thiazol-2-yl)phenyl]boronic acid formic acid salt], for which the IC50 was 0.692 nM.

For `Nc1cnnc2cc(-c3cc(B(O)O)ccc3-c3nc[nH]n3)ccc12` [Example 20, [3-(4-aminocinnolin-7-yl)-4-(1H-1,2,4-triazol-3-yl)phenyl]boronic acid], the IC50 was 0.776 nM.

For `Cc1cc(-c2nccs2)c(-c2ccc3c(N)cnnc3c2)cc1B(O)O` [Example 53, [5-(4-aminocinnolin-7-yl)-2-methyl-4-thiazol-2-yl-phenyl]boronic acid formic acid salt], the IC50 was 9.55 nM.

For `Nc1cnnc2cc(-c3cc(B(O)O)ccc3-c3ncco3)ccc12` [Example 25, [3-(4-aminocinnolin-7-yl)-4-(1,3-oxazol-2-yl)phenyl]boronic acid formic acid salt], the IC50 is 0.912 nM.

Take `Cc1cc(-c2cc[nH]n2)c(-c2ccc3c(N)cnnc3c2)cc1B(O)O` [Example 41, [5-(4-aminocinnolin-7-yl)-2-methyl-4-(1H-pyrazol-3-yl)phenyl]boronic acid]: the IC50 is 24.5 nM.

Regarding `COc1cc(-n2cccn2)c(-c2ccc3c(N)nccc3c2)cc1B(O)O` [Example 48, [5-(1-amino-6-isoquinolyl)-2-methoxy-4-pyrazol-1-yl-phenyl]boronic acid formic acid salt], the IC50 is 3.89 nM.

Regarding `Nc1cnnc2cc(-c3cc(B(O)O)c(OC4CC4)cc3-n3cccn3)ccc12` [Example 89, [5-(4-aminocinnolin-7-yl)-2-(cyclopropoxy)-4-pyrazol-1-yl-phenyl]boronic acid formic acid salt], the IC50 was 0.759 nM.

As for `CNC(=O)c1cnn(-c2ccc(B(O)O)cc2-c2ccc3c(N)cnnc3c2)c1` [Example 2, [3-(4-aminocinnolin-7-yl)-4-[4-(methylcarbamoyl)-1H-pyrazol-1-yl]phenyl]boronic acid formic acid salt], the IC50 was 3.89 nM.

As to `Nc1cnnc2cc(-c3cc(B(O)O)ccc3-c3cc[nH]n3)ccc12` [Example 7, [3-(4-aminocinnolin-7-yl)-4-(1H-pyrazol-3-yl)phenyl]boronic acid], the IC50 is 2.63 nM.

With `Nc1cnnc2cc(-c3cc4c(cc3-c3ncco3)OCCOB4O)ccc12` [Example 74, 7-(1-hydroxy-7-oxazol-2-yl-3,4-dihydro-2,5,1-benzodioxaborepin-8-yl)cinnolin-4-amine], the IC50 was 1.12 nM.

For `CCOc1cc(-n2cccn2)c(-c2ccc3c(N)cnnc3c2)cc1B(O)O` [Example 82, [5-(4-aminocinnolin-7-yl)-2-ethoxy-4-pyrazol-1-yl-phenyl]boronic acid], the IC50 was 1.23 nM.

Turning to `COc1cc(-c2cc[nH]n2)c(-c2ccc3c(N)cnnc3c2)cc1B(O)O` [Example 36, [5-(4-aminocinnolin-7-yl)-2-methoxy-4-(1H-pyrazol-3-yl)phenyl]boronic acid formic acid salt], the IC50 was 1.29 nM.

For `COc1cc(-n2cc(N3CCOCC3)cn2)c(-c2ccc3c(N)cnnc3c2)cc1B(O)O` [Example 58, [5-(4-aminocinnolin-7-yl)-2-methoxy-4-(4-morpholinopyrazol-1-yl)phenyl]boronic acid formic acid salt], the IC50 is 2 nM.

On to `CC(=O)Nc1cnn(-c2ccc(B(O)O)cc2-c2ccc3c(N)cnnc3c2)c1` [Example 10, [3-(4-aminocinnolin-7-yl)-4-(4-acetamido-1H-pyrazol-1-yl)phenyl]boronic acid formic acid salt], for which the IC50 is 1.78 nM.

With `Nc1cnnc2cc(-c3cc(B(O)O)ccc3-n3ncnn3)ccc12` [Example 12, [3-(4-aminocinnolin-7-yl)-4-(2H-1,2,3,4-tetrazol-2-yl)phenyl]boronic acid], the IC50 was 0.589 nM.

Consider `Nc1cnnc2cc(-c3cc(B(O)O)cc4c3-n3nccc3CCO4)ccc12` [Example 65, [[10-(4-aminocinnolin-7-yl)-4,5-dihydropyrazolo[5,1-d][1,5]benzoxazepin-8-yl]boronic acid formic acid salt], for which the IC50 is 2.4 nM.

In the case of `Nc1cnnc2cc(-c3cc(B(O)O)ccc3-c3ncccn3)ccc12` [Example 26, [3-(4-aminocinnolin-7-yl)-4-(pyrimidin-2-yl)phenyl]boronic acid formic acid salt], the IC50 was 7.24 nM.

As to `Cc1cc(-c2ncco2)c(-c2ccc3c(N)cnnc3c2)cc1B(O)O` [Example 42, [5-(4-aminocinnolin-7-yl)-2-methyl-4-oxazol-2-yl-phenyl]boronic acid formic acid salt], the IC50 is 2.04 nM.

Regarding `COc1cnn(-c2cc(OC)c(B(O)O)cc2-c2ccc3c(N)cnnc3c2)c1` [Example 37, [5-(4-aminocinnolin-7-yl)-2-methoxy-4-(4-methoxypyrazol-1-yl)phenyl]boronic acid formic acid salt], the IC50 is 0.912 nM.

With `Nc1cnnc2cc(-c3cc(B(O)O)ccc3-n3cc(F)cn3)ccc12` [Example 11, [3-(4-aminocinnolin-7-yl)-4-(4-fluoro-1H-pyrazol-1-yl)phenyl]boronic acid formic acid salt], the IC50 was 1.45 nM.

As for `Nc1cnnc2cc(-c3cc(B(O)O)ccc3-c3nccs3)ccc12` [Example 24, [3-(4-aminocinnolin-7-yl)-4-(1,3-thiazol-2-yl)phenyl]boronic acid formic acid salt], the IC50 was 2.57 nM.

As for `COc1cc(-c2ncc(F)s2)c(-c2ccc3c(N)cnnc3c2)cc1B(O)O` [Example 75, [5-(4-aminocinnolin-7-yl)-4-(5-fluorothiazol-2-yl)-2-methoxy-phenyl]boronic acid], the IC50 is 0.977 nM.

Turning to `Nc1cnnc2cc(-c3cc(B(O)O)c(OC4CC(F)(F)C4)cc3-n3cccn3)ccc12` [Example 34, [5-(4-aminocinnolin-7-yl)-2-(3,3-difluorocyclobutoxy)-4-(1H-pyrazol-1-yl)phenyl]boronic acid formic acid salt], the IC50 was 11.5 nM.

With `COc1cc(-c2ncns2)c(-c2ccc3c(N)cnnc3c2)cc1B(O)O` [Example 91, [5-(4-aminocinnolin-7-yl)-2-methoxy-4-(1,2,4-thiadiazol-5-yl)phenyl]boronic acid formic acid salt], the IC50 is 0.468 nM.
